The data set is described as follows: Henry solubility constant Hcp at 295 K (mol/(m3 Pa)). To be noted: reference: Hellmann (1987).
As for `O=[N+]([O-])c1ccc(Cl)cc1` [4-chloronitrobenzene], the “Henry solubility constant Hcp at 295 K” value was 0.18.

Take `CCCCCOC(C)=O` [pentyl ethanoate]: the “Henry solubility constant Hcp at 295 K” value worked out at 0.034.

Consider `ClC=C(Cl)Cl` [trichloroethene], for which the “Henry solubility constant Hcp at 295 K” value was found to be 0.00098.

With `c1ccccc1` [benzene], the “Henry solubility constant Hcp at 295 K” value came out at 0.002.

Turning to `CC(=O)CC(C)C` [4-methyl-2-pentanone], the “Henry solubility constant Hcp at 295 K” value came out at 0.065.

Consider `ClC(Cl)(Cl)Cl` [tetrachloromethane], for which the “Henry solubility constant Hcp at 295 K” value amounted to 0.00033.

For `ClCCl` [dichloromethane], the “Henry solubility constant Hcp at 295 K” value stood at 0.0057.

In the case of `Clc1cc(Cl)cc(Cl)c1` [1,3,5-trichlorobenzene], the “Henry solubility constant Hcp at 295 K” value was 0.035.

`ClC(Cl)=C(Cl)Cl` [tetrachloroethene]: the “Henry solubility constant Hcp at 295 K” value came out at 0.00077.

`CC(C)=O` [propanone]: the “Henry solubility constant Hcp at 295 K” value came to 0.14.

On to `Clc1ccccc1` [chlorobenzene], for which the “Henry solubility constant Hcp at 295 K” value came out at 0.0029.

Take `O=[N+]([O-])c1ccccc1` [nitrobenzene]: the “Henry solubility constant Hcp at 295 K” value was determined as 0.14.

The record behind these values is Sander's compilation of Henry's law constants (doi:10.1007/bf00475967).
